The text below walks through data of US20240109892A1, “POLY(ADP-RIBOSE) GLYCOHYDROLASE (PARG) INHIBITORS AGAINST COVID MACRODOMAIN AND METHODS OF USING THE SAME” (BOARD OF REGENTS, THE UNIVERSITY OF TEXAS SYSTEM, priority 2021, published 2024).

The structures appear in SMILES notation. Where two headings read alike, the source gives them in different places.

The target in data set [1] is T1, CoV-2 Mac1 (Severe acute respiratory syndrome coronavirus 2, UniProt P0DTC1). Put plainly: biochemical. It counts as binding.
In data set [2] the target is T1, CoV-2 Mac1. Put plainly: Microscale thermophoresis (MST) binding affinity measurements with CoV-2 Mac1. Particulars: preliminary measurements. (In general: Microscale thermophoresis detects binding through changes in fluorescence in a small temperature gradient.)
The conditions of data set [3]: pH 7.5; cited from earlier work.

Take `Cn1c(=O)c2[nH]c(SCCC(=O)NS(=O)(=O)CCN3CCOCC3)nc2n(C)c1=O` [PARG-345, 3-((1,3-dimethyl-2,6-dioxo-2,3,6,7-tetrahydro-1H-purin-8-yl)thio)-N-((2-morpholinoethyl)sulfonyl)propanamide]: the “binding to the Mac1 domain by ITC” value at CoV-2 Mac1 [1] is listed as “fails to detect a robust interaction”. On CoV-2 Mac1 [2], the “binding to the Mac1 domain by MST” value was “micromolar affinity”. The “pKa of morpholine nitrogen atom” value in data set [3] was about 8.3.
On to `Cn1c(=O)c2[nH]c(SCCCNC(=S)NCCN3CCOCC3)nc2n(C)c1=O` [PARG-329], for which, on CoV-2 Mac1 [1], the “binding to the Mac1 domain by ITC” value was “fails to detect a robust interaction”. For the same molecule, the “binding to the Mac1 domain by MST” value on CoV-2 Mac1 [2] is given as “micromolar affinity”.
Regarding `Nc1ncnc2c1ncn2[C@@H]1O[C@H](COP(=O)(O)OP(=O)(O)OC[C@H]2OC(O)[C@H](O)[C@@H]2O)[C@@H](O)[C@H]1O` (stereo partly shown) [ADPr, ADP-ribose], at CoV-2 Mac1 [1] (ITC, 25° C.), the ΔG was -6.74 kcal/mol, the ΔH was -9.18 kcal/mol and the “−TΔS” value turned out to be 2.43 kcal/mol. For the same molecule, at CoV-2 Mac1 [1] (ITC, 25° C., 25 mM HEPES pH 7.5, 150 mM NaCl, read-out: Kd), the dissociation constant Kd amounted to 11.6 µM. In addition, the Kd on CoV-2 Mac1 [1] (read-out: dissociation constant Kd) fell in the range of 10 to 12 µM.

As a reminder, the Kd is the equilibrium constant for the complex coming apart.
